The source made the active and inactive calls. No cut-off for these calls is given here.
Key:
[1] = Cytotoxicity against human LX-2 cells by CCK-8 assay; format: toxicity, cell-based
[2] = target: T1, Vitamin D3 receptor (Homo sapiens) (UniProt P11473); test: Binding affinity to human full-length Vitamin D receptor assessed as relative binding affinity at 1 uM incubated for 2 hrs by fluorescence polarization based competitive binding assay relative to calcipotriol
T1 sequence (whole entry): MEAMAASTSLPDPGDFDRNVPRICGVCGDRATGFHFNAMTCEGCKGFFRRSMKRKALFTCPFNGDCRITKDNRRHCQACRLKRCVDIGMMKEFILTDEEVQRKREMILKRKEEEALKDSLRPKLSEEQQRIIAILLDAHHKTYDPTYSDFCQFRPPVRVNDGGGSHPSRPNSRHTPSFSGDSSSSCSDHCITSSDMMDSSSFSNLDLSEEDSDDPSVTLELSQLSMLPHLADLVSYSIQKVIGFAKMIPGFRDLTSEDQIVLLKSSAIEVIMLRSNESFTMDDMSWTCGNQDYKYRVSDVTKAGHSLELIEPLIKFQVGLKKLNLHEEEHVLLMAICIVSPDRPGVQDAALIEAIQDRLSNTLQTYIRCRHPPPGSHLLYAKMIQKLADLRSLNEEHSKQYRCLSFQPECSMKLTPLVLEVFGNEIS

[3] = target: T1, Vitamin D3 receptor (Homo sapiens); test: Agonist activity at Vitamin D receptor in human LX-2 cells assessed as transcriptional activity by measuring induction of CYP24A expression at 0.5 uM by RT-qPCR analysis relative to control; format: cell-based
Mus musculus [4] = test: Anti-fibrotic effect in CCl4-induced hepatic fibrosis C57BL/6 mouse model assessed as inhibition of collagen deposition at 500 ug/kg, po five times a week for 2 weeks by Hematoxylin-Eosin (H&E) staining based assay; format: functional, organism-based; conditions: dose 500.0 µg/kg
Mus musculus [5] = test: Anti-fibrotic effect in CCl4-induced hepatic fibrosis C57BL/6 mouse model assessed as inhibition of serum AST level at 500 ug/kg, po five times a week for 2 weeks; format: functional, organism-based; conditions: dose 500.0 µg/kg
Mus musculus [6] = test: Anti-fibrotic effect in CCl4-induced hepatic fibrosis C57BL/6 mouse model assessed as reduction in hepatic fibrosis lesions at 500 ug/kg, po five times a week for 2 weeks by Hematoxylin-Eosin (H&E) staining based assay; format: functional, organism-based; conditions: dose 500.0 µg/kg
Mus musculus [7] = test: Anti-fibrotic effect in CCl4-induced hepatic fibrosis C57BL/6 mouse model assessed as inhibition of serum total bile acid (TBA) level at 500 ug/kg, po five times a week for 2 weeks; format: functional, organism-based; conditions: dose 500.0 µg/kg
Mus musculus [8] = test: Anti-fibrotic effect in CCl4-induced hepatic fibrosis C57BL/6 mouse model assessed as reduction the lesions at 500 ug/kg, po five times a week for 2 weeks by Masson's Trichrome staining based assay; format: functional, organism-based; conditions: dose 500.0 µg/kg
Mus musculus [9] = test: Anti-fibrotic effect in improving CCl4-induced hepatic fibrosis C57BL/6 mouse model assessed as uniform liver parenchyma at 500 ug/kg, po five times a week for 2 weeks by qualitative ultrasound imaging analysis; format: functional, organism-based; conditions: dose 500.0 µg/kg
Mus musculus [10] = test: Anti-fibrotic effect in CCl4-induced hepatic fibrosis C57BL/6 mouse model assessed as inhibition of proliferation of fibrous tissue at 500 ug/kg, po five times a week for 2 weeks by Hematoxylin-Eosin (H&E) staining based assay; format: functional, organism-based; conditions: dose 500.0 µg/kg
Mus musculus [11] = test: Anti-fibrotic effect in improving CCl4-induced hepatic fibrosis C57BL/6 mouse model assessed as decrease in liver to kidney brightness ratio at 500 ug/kg, po five times a week for 2 weeks by qualitative ultrasound imaging analysis; format: functional, organism-based; conditions: dose 500.0 µg/kg
[12] = target: T1, Vitamin D3 receptor (Homo sapiens); test: Agonist activity at Vitamin D receptor in HEK293 cells assessed as receptor transactivation incubated for 48 hrs by dual-luciferase reporter assay; format: cell-based; conditions: filed as agonist, dose 0.01-1 µM
Mus musculus [13] = test: Anti-fibrotic effect in CCl4-induced hepatic fibrosis C57BL/6 mouse model assessed as decrease in inflammatory cell infiltration at 500 ug/kg, po five times a week for 2 weeks by Hematoxylin-Eosin (H&E) staining based assay; format: functional, organism-based; conditions: dose 500.0 µg/kg
Mus musculus [14] = test: Anti-fibrotic effect in CCl4-induced hepatic fibrosis C57BL/6 mouse model assessed as inhibition of collagen deposition at 500 ug/kg, po five times a week for 2 weeks by Masson's Trichrome […] staining based assay; format: functional, organism-based; conditions: dose 500.0 µg/kg
Mus musculus [15] = test: Anti-fibrotic effect in CCl4-induced hepatic fibrosis C57BL/6 mouse model assessed as inhibition of proliferation of fibrous tissue at 500 ug/kg, po five times a week for 2 weeks by Masson's Trichrome […] staining based assay; format: functional, organism-based; conditions: dose 500.0 µg/kg
Mus musculus [16] = test: Anti-fibrotic effect in CCl4-induced hepatic fibrosis C57BL/6 mouse model assessed as inhibition of serum ALT level at 500 ug/kg, po five times a week for 2 weeks; format: functional, organism-based; conditions: dose 500.0 µg/kg
Mus musculus [17] = test: Anti-fibrotic effect in CCl4-induced hepatic fibrosis C57BL/6 mouse model assessed as reduction in hepatic fibrosis lesions at 500 ug/kg, po five times a week for 2 weeks by Masson's Trichrome staining based assay; format: functional, organism-based; conditions: dose 500.0 µg/kg
Mus musculus [18] = test: Anti-fibrotic effect in CCl4-induced hepatic fibrosis C57BL/6 mouse model assessed as decrease in inflammatory cell infiltration at 500 ug/kg, po five times a week for 2 weeks by Masson's Trichrome staining based assay; format: functional, organism-based; conditions: dose 500.0 µg/kg
Mus musculus [19] = test: Anti-fibrotic effect in CCl4-induced hepatic fibrosis C57BL/6 mouse model assessed as reduction the lesions at 500 ug/kg, po five times a week for 2 weeks by Hematoxylin-Eosin (H&E) staining based assay; format: functional, organism-based; conditions: dose 500.0 µg/kg

Structure (SMILES)	IC50 [1]	RBA [2]	other results
CC(C)(O)CCCCOc1cccc(COc2ccc(CO)c(CO)c2)c1	> 30 µM	9.25%	
OCCCCCOc1cccc(COc2ccc(CO)c(CO)c2)c1	> 30 µM	9.83%	
CCC(O)(CC)CCCOc1cccc(C(Oc2ccc(CO)c(CO)c2)C(C)C)c1 (centres undefined)	> 30 µM	36.4%	
O=C(O)CCCOc1cccc(/C=C/c2ccc(CO)c(CO)c2)c1	> 30 µM	37%	
CCC(O)(CC)CCCCCOc1cccc(COc2ccc(CO)c(CO)c2)c1	> 30 µM	3.47%	
CCC(O)(CC)CCCCOc1cccc(COc2ccc(CO)c(CO)c2)c1	> 30 µM	35.8%	
COC(=O)CCCCCOc1cccc(COc2ccc(CO)c(CO)c2)c1	> 30 µM	29.5%	
C=CCC(O)(CC=C)CCCOc1cccc(/C=C/c2ccc(CO)c(CO)c2)c1	> 30 µM		RBA ([2]; filed as agonist): 40.5%
CC(C)(O)CCCOc1cccc(COc2ccc(CO)c(CO)c2)c1	> 30 µM	27.2%	
C=CCC(O)(CC=C)CCCCOc1ccc(CCc2ccc(CO)c(CO)c2)cc1	> 30 µM	16.2%	Activity [3]: inactive
CCC(O)(CC)CCCOc1cccc(C(C)Oc2ccc(CO)c(CO)c2)c1 (centres undefined)	> 30 µM		RBA ([2]; filed as agonist): 45.1%
CCC(O)(CC)CCCCOc1ccc(/C=C/c2ccc(CO)c(CO)c2)cc1	> 30 µM	31.2%	
OCCCCCOc1ccc(CCc2ccc(CO)c(CO)c2)cc1	> 30 µM		RBA ([2]; filed as agonist): 46.2%; Activity [3]: inactive
CC(C)(O)CCCCCOc1cccc(COc2ccc(CO)c(CO)c2)c1	> 30 µM	27.2%	
CCCCC(Oc1ccc(CO)c(CO)c1)c1cccc(OCCCC(O)(CC)CC)c1 (centres undefined)	> 30 µM		RBA ([2]; filed as agonist): 42.2%
O=C(CCCOc1cccc(COc2ccc(CO)c(CO)c2)c1)N1CCOCC1	> 30 µM	17.9%	
CN1CCN(CCCOc2ccc(/C=C/c3ccc(CO)c(CO)c3)cc2)CC1	> 30 µM	21.4%	
CCN(CC)CCCOc1cccc(/C=C/c2ccc(CO)c(CO)c2)c1	> 30 µM		RBA ([2]; filed as agonist): 42.2%
OCc1ccc(/C=C/c2cccc(OCCCC(O)(c3ccccc3)c3ccccc3)c2)cc1CO	> 30 µM	23.7%	
OCCCCOc1cccc(/C=C/c2ccc(CO)c(CO)c2)c1	> 30 µM	11.6%	
CCN(CC)CCCOc1ccc(/C=C/c2ccc(CO)c(CO)c2)cc1	> 30 µM		RBA ([2]; filed as agonist): 49.7%
CCN(CC)C(=O)CCCOc1cccc(COc2ccc(CO)c(CO)c2)c1	> 30 µM	8.67%	
OCCCCOc1cccc(COc2ccc(CO)c(CO)c2)c1	> 30 µM		RBA ([2]; filed as agonist): 41.6%
CCC(O)(CC)CCCCOc1cccc(/C=C/c2ccc(CO)c(CO)c2)c1	> 30 µM	23.1%	
OCc1ccc(/C=C/c2cccc(OCCCC(F)(F)F)c2)cc1CO	> 30 µM	30.1%	Activity ([3]; filed as agonist): Active
OCCCCCOc1cccc(/C=C/c2ccc(CO)c(CO)c2)c1	> 30 µM	5.78%	
CCC(O)(CC)CCCOc1cccc(/C=C/c2ccc(CO)c(CO)c2)c1	> 30 µM		Activity (Mus musculus [4]): Active; Activity (Mus musculus [5]): Active; Activity (Mus musculus [6]): Active; Activity (Mus musculus [7]): Active; Activity (Mus musculus [8]): Active; Activity (Mus musculus [9]): Active; Activity (Mus musculus [10]): Active; Activity (Mus musculus [11]): Active; Activity [12]: Dose-Dependent Effect; Activity (Mus musculus [13]): Active; Activity (Mus musculus [14]): Active; RBA ([2]; filed as agonist): 48%; Activity (Mus musculus [15]): Active; Activity (Mus musculus [16]): Active; Activity (Mus musculus [17]): Active; Activity (Mus musculus [18]): Active; Activity ([3]; filed as agonist): Active; Activity (Mus musculus [19]): Active

Structure (SMILES)	IC50 [1]	RBA [2]	other results
C=CCC(O)(CC=C)CCCCCOc1cccc(COc2ccc(CO)c(CO)c2)c1	> 30 µM		RBA ([2]; filed as agonist): 46.2%; Activity ([3]; filed as agonist): Active
COC(=O)CCCOc1cccc(COc2ccc(CO)c(CO)c2)c1	> 30 µM	19.6%	
CC(C)(O)CCCCOc1ccc(CCc2ccc(CO)c(CO)c2)cc1	> 30 µM	11.6%	Activity [3]: inactive
CCCC(Oc1ccc(CO)c(CO)c1)c1cccc(OCCCC(O)(CC)CC)c1 (centres undefined)	> 30 µM		RBA ([2]; filed as agonist): 46.2%
OCCCCCCOc1cccc(COc2ccc(CO)c(CO)c2)c1	> 30 µM	9.25%	
CCC(O)(CC)CCCCOc1ccc(CCc2ccc(CO)c(CO)c2)cc1	> 30 µM		RBA ([2]; filed as agonist): 44.5%; Activity [3]: inactive
OCc1ccc(/C=C/c2ccc(OCCCN3CCOCC3)cc2)cc1CO	> 30 µM	32.4%	
CN1CCN(C(=O)CCCOc2cccc(COc3ccc(CO)c(CO)c3)c2)CC1	> 30 µM	30.1%	
CCn1c(C(=O)N[C@@H](C)CO)ccc1C(CC)(CC)c1ccc(OCC(O)C(C)(C)C)c(C)c1 (some centres undefined)			Activity (Mus musculus [4]): Active; Activity (Mus musculus [6]): Active; Activity (Mus musculus [8]): Active; Activity (Mus musculus [9]): Active; Activity (Mus musculus [10]): Active; Activity (Mus musculus [11]): Active; Activity (Mus musculus [13]): Active; Activity (Mus musculus [14]): Active; Activity (Mus musculus [15]): Active; Activity (Mus musculus [17]): Active; Activity (Mus musculus [18]): Active; Activity (Mus musculus [19]): Active
CCC(O)(CC)CCCOc1cccc(CCc2ccc(CO)c(CO)c2)c1	> 30 µM	28.3%	Activity [3]: inactive
C=CCC(O)(CC=C)CCCOc1cccc(CCc2ccc(CO)c(CO)c2)c1	> 30 µM	35.3%	Activity [3]: inactive
C=CCC(O)(CC=C)CCCOc1cccc(COc2ccc(CO)c(CO)c2)c1	> 30 µM	20.2%	
OCCCCCOc1ccc(/C=C/c2ccc(CO)c(CO)c2)cc1	> 30 µM	36.4%	
COC(=O)CCCCOc1cccc(COc2ccc(CO)c(CO)c2)c1	> 30 µM		RBA ([2]; filed as agonist): 45.7%
OCCCCOc1cccc(CCc2ccc(CO)c(CO)c2)c1	> 30 µM	32.4%	Activity [3]: inactive
CC(C)(O)CCCOc1cccc(/C=C/c2ccc(CO)c(CO)c2)c1	> 30 µM		RBA ([2]; filed as agonist): 44.5%
CCN(CC)CCCOc1cccc(COc2ccc(CO)c(CO)c2)c1	> 30 µM		RBA ([2]; filed as agonist): 49.7%
CCC(O)(CC)CCCCCOc1cccc(/C=C/c2ccc(CO)c(CO)c2)c1	> 30 µM	33.5%	
COC(=O)CCCOc1cccc(/C=C/c2ccc(CO)c(CO)c2)c1	> 30 µM	34.1%	
OCc1ccc(/C=C/c2cccc(OCCCN3CCOCC3)c2)cc1CO	> 30 µM	34.1%	
CCC(O)(CC)CCOc1cccc(/C=C/c2ccc(CO)c(CO)c2)c1	> 30 µM	38.1%	
O=C(O)CCCOc1cccc(COc2ccc(CO)c(CO)c2)c1	> 30 µM	9.25%	
CCC(O)(CC)CCCOc1cccc(COc2ccc(CO)c(CO)c2)c1	> 30 µM		RBA ([2]; filed as agonist): 43.4%; Activity ([3]; filed as agonist): Active
CC(O)CCCOc1cccc(/C=C/c2ccc(CO)c(CO)c2)c1 (centres undefined)	> 30 µM	8.67%	
CC(C)(O)CCCOc1cccc(CCc2ccc(CO)c(CO)c2)c1	> 30 µM	14.4%	Activity [3]: inactive
O=C(CCCOc1cccc(COc2ccc(CO)c(CO)c2)c1)N1CCCCC1	> 30 µM	24.9%	
